Test: gradient 5% acetonitrile 3 min, to 50% in 2 min, to 85% in 15 min, held 3 min, 100 µL/min
Details: column: Zorbax Extend-C18 2.1 x 50 mm; eluents: water / acetonitrile, 0.1% formic acid
Method in brief: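 Pure standards were run in mixtures of ~100 molecules by HPLC coupled to a quadrupole time-of-flight mass spectrometer. The column was a Zorbax Extend-C18 (2.1 × 50 mm, 1.8 μm) at 100 μL/min, with water and acetonitrile each containing 0.1% formic acid, in positive and negative ionization mode. Dead and dwell volumes were 40 μL and 900 μL. Retention time was taken from computationally picked adduct peaks, each manually inspected, with data collected over 3 months.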

| RP-LC retention time [s] | SMILES |
| --- | --- |
| 570 | CCCN1CCN(C(=O)C2CCN(c3cnn(CCC)c(=O)c3)CC2)CC1 |
| 581 | Cn1cnnc1SCC(=O)N1CCCCCC1 |
| 740 | Cc1ccc(S(=O)(=O)N2CCC(CCC(=O)NC3CCS(=O)(=O)C3)CC2)cc1 (configuration not stated) |
| 701 | O=C(NC1CC1)C1CCN(Cc2cc3ccccc3n2Cc2ccc(F)cc2)CC1 |
| 1210 | COc1ccc2c(c1)CCc1sc(NC(=O)c3ccc(OC)c(Br)c3)nc1-2 |
| 745 | Cc1ccc(C(C)NC(=O)c2ccc(-c3cccnc3)nc2)c(C)c1 (configuration not stated) |
| 1110 | Cc1ccc(-n2c(=O)c3sccc3n(Cc3nc(-c4ccc(Br)cc4)no3)c2=O)cc1 |
| 764 | COc1ccc(NC(=O)N2C[C@@H]3C[C@H]2C[C@@H]3NS(=O)(=O)c2ccccc2)c(C)c1 |
| 614 | Cn1cnc(S(=O)(=O)N2CCC(Cc3nncn3Cc3ccccc3)C2)c1 (configuration not stated) |
| 851 | Cc1ccsc1C(=O)N1CCC2(CC1)CC(OCC1CC1)CCO2 (configuration not stated) |
| 947 | CCC1Oc2ccc(S(=O)(=O)N3CCC(C(=O)Nc4cccc(Cl)c4C)CC3)cc2NC1=O (configuration not stated) |
| 1030 | COc1cccc(-c2noc(Cn3c(=O)n(-c4ccc(C)cc4)c(=O)c4sccc43)n2)c1 |
| 596 | COc1cc(-c2noc(Cn3ccnc3C)n2)cc(OC)c1OC |
| 816 | Cc1ccc(S(=O)(=O)N2CC(F)(F)C[C@H]2CN2CCc3ccccc3C2)c(C)c1 |
| 642 | COc1cc(NC(=O)N2CCN(CCn3c(C(F)(F)F)nc4cccnc43)CC2)cc(OC)c1 |
| 966 | Cc1nn(-c2ccccc2)c(C)c1S(=O)(=O)N1CCC(C(=O)NCc2ccc(Cl)cc2)CC1 |
| 617 | Cc1nnsc1C(=O)N1CCC(c2nnc(-c3ccco3)o2)CC1 |
| 754 | O=S(=O)(c1cccs1)N1CCN(c2ncccn2)CC1 |
| 793 | COc1ccc(NC(=O)C2CC(=O)N(CCc3c[nH]c4ccc(F)cc34)C2)c(OC)c1 (configuration not stated) |
| 721 | O=C(Cn1cnc2nc3c(cc2c1=O)CCCC3)Nc1cccc(F)c1 |
| 907 | Cc1ccc(C)c(N2CCN(C(=O)C3CCN(c4cnc5nccnc5c4)CC3)CC2)c1 |
| 981 | Cc1occc1-c1nnc(SC(C)C(=O)N2CCCc3ccccc32)o1 (configuration not stated) |

| RP-LC retention time [s] | SMILES |
| --- | --- |
| 810 | O=c1c2scc(-c3ccc(F)cc3)c2ncn1Cc1cc(=O)n2ccccc2n1 |
| 730 | O=C(NCc1cccc(Br)c1)c1cn2ccccc2n1 |
| 963 | CCn1nnc2ccc(-c3noc(-c4ccc(OC)c(OC)c4)n3)cc21 |
| 729 | Cc1cc(N2CCCC2)n2nc(-c3ccccc3C)nc2n1 |
| 1130 | COc1ccc(NC(=O)Cn2nc(N3CCC(C)CC3)c3ccccc3c2=O)c(OC)c1 |
| 637 | CN1C(=O)CSc2cnn(CC(=O)NC3CCCC3)c(=O)c21 |
| 694 | CCCc1nnc(NC(=O)CSc2ccc(NC(=O)C3CC3)nn2)s1 |
| 638 | CSc1ccc(CNC(=O)CN2CCc3[nH]c4c(C)cc(F)cc4c(=O)c3C2)cc1 |
| 848 | Cc1cccnc1NC(=O)c1c(O)c2cc(F)cc3c2n(c1=O)C(C)CC3 (configuration not stated) |
| 765 | CCOc1ccc(NC(=O)Cn2nc3cc(C)nc(N4CCCC4)n3c2=O)cc1 |
| 705 | COc1ccc(C2Cn3cnc(C(=O)N4CCC(C(=O)NC5CCCC5)CC4)c3CO2)cc1 (configuration not stated) |
| 615 | O=C(c1ccc(Cn2c(=O)c3cccn3c3cccnc32)o1)N1CCN(c2ccccn2)CC1 |
| 608 | Cc1nnc(C2CCCCCN2C(=O)CCc2c(C)nn(C)c2C)o1 (configuration not stated) |
| 638 | N#Cc1ccc(-c2nc(-c3ccc4c(c3)ncn4CCN3CCCC3)no2)cc1 |
| 962 | CCc1nc(-c2csc(S(=O)(=O)N3CCC(C(=O)Nc4ccc(F)cc4)CC3)c2)no1 |
| 930 | CC(C(=O)NCCc1c[nH]c2ccc(Cl)cc12)n1c2ccccc2c2cnn(C)c(=O)c21 (configuration not stated) |
| 925 | CCn1ccc2cc(S(=O)(=O)N3CCCC(C(=O)NCCc4ccco4)C3)ccc21 (configuration not stated) |
| 920 | Cc1ccc(CN2CCN(C3CCN(S(=O)(=O)c4cc(F)ccc4C)CC3)C(=O)C2=O)cc1 |
| 601 | COc1ccc(-c2c(C(=O)NCCN3CCOCC3)nc3ccccn23)cc1 |
| 652 | O=C(CN1CCN(c2ccccn2)CC1)N1c2ccccc2Sc2ccccc21 |
| 690 | Cc1ccc(Cn2cccc2C(=O)C(=O)N2CCN(c3ccccn3)CC2)cc1 |
| 565 | CCOCCCNC(=O)Cn1ncc2c(N3CCN(c4ccccn4)CC3)ncnc21 |

| RP-LC retention time [s] | SMILES |
| --- | --- |
| 645 | COc1cccc2c1OC1(C)CC2NC(=O)N1c1cccc(C(=O)O)c1 (configuration not stated) |
| 572 | CC(C(=O)NCCN1CCN(C)CC1)n1c2ccccc2c2cnn(C)c(=O)c21 (configuration not stated) |
| 578 | CCOC(=O)C1C(=O)NC(N2CCN(Cc3ccccc3)CC2)=NC1c1ccco1 (configuration not stated) |
| 622 | Cc1cc(S(=O)(=O)N2CCN(C3CCN(Cc4ccccn4)C3=O)CC2)ccc1Cl (configuration not stated) |
| 755 | O=C(c1ccc([N+](=O)[O-])o1)N1CCN(Cc2nnnn2-c2ccc(F)cc2)CC1 |
| 738 | Cc1cc(C)cc(NC(=O)Nc2ccc3nncn3c2)c1 |
| 867 | CC1(C)CC2CC(C)(CN2c2ncnc(N)c2[N+](=O)[O-])C1 (configuration not stated) |
| 591 | COc1ccc(-c2noc(N3CCC(C(=O)NCCN4CCOCC4)CC3)n2)cc1OC |
| 572 | CCOC(=O)C1CCN(Cc2nc(-c3ccc(N4CCCC4)nc3)no2)CC1 |
| 1090 | Cc1nc2c(sc3nc(-c4ccccc4)ccc32)c(=O)n1CC(=O)Nc1ccc(F)cc1Cl |
| 848 | O=C(Nc1ccc(Cl)cc1)N1CCC(n2cnc3ccc(F)cc3c2=O)CC1 |
| 911 | O=C(C1CCN(c2nc3ccc(-c4cccs4)nc3s2)CC1)N1CCCCC1 |
| 683 | Cc1nn(C)cc1S(=O)(=O)NCCc1c[nH]c2ccccc12 |
| 839 | CC1CCN(C(=O)c2cc(S(=O)(=O)N3CCC(C(=O)NC4CCCCC4)CC3)cn2C)CC1 |
| 694 | Cc1cccc(NS(=O)(=O)c2cc3n(c2)CCN(C)C3=O)c1C |
| 674 | Cc1ccc(Nc2c(C(=O)N3CCC(C)CC3)cnc3nc(C)ccc23)c(C)c1 |
| 746 | COc1ccc(OC)c(NC(=O)N2CCC(N3CCN(Cc4ccccc4)C(=O)C3=O)CC2)c1 |
| 650 | CCOCCc1c(O)nc(SC)[nH]c1=O |
| 771 | CCN(CC)c1nc(-c2ccc([N+](=O)[O-])cc2)nc2ccccc12 |
| 765 | O=C(Nc1cnc(N2CCCC2)nc1)c1cccc(Cl)c1 |
| 568 | CCC1(O)CCOC2(CCN(Cc3cc(OC)cc(OC)c3)CC2)C1 (configuration not stated) |
| 983 | Cc1ccc(C)c(NC(=O)CN2C(=O)CCc3cc(S(=O)(=O)N4CCCCC4C)ccc32)c1 (configuration not stated) |

| RP-LC retention time [s] | SMILES |
| --- | --- |
| 708 | CCC(=O)Nc1ccc2c(c1)CN(C(=O)CCc1ccccc1)C(C(=O)N1CCCC1)C2 (configuration not stated) |
| 1010 | CCn1c(=O)oc2cc(S(=O)(=O)N3CCC(CC(=O)N4c5ccccc5CC4C)CC3)ccc21 (configuration not stated) |
| 862 | COc1ccc(-n2c(=O)n(C)c(=O)c3cc(C(=O)Nc4ccccc4)cnc32)cc1 |
| 638 | O=C(c1ccc(Cl)s1)N1CCN(c2ncnc3c2CCC3)CC1 |
| 871 | Cc1cc(Cl)ccc1NC(=O)C1CCN(C(=O)c2ncn3c2COC(c2ccc(F)cc2)C3)CC1 (configuration not stated) |
| 831 | CC(=O)N1CCc2ccccc2C1C(=O)NC1CCCCCC1 (configuration not stated) |
| 757 | COc1cccc(CNC(=O)C2CCN(S(=O)(=O)c3ccc4c(c3)NC(=O)C(C)O4)CC2)c1 (configuration not stated) |
| 914 | O=S(=O)(NCC1CCCO1)c1ccc(Cl)c(-c2nnc(-c3ccccc3)o2)c1 (configuration not stated) |
| 784 | CCc1noc(NC(C)=O)c1-c1ccc(C)c(S(=O)(=O)Nc2ccc3c(c2)OCCO3)c1 |
| 573 | Cc1noc([C@]23CN(CCc4ccccc4)CC[C@H]2CN(CCc2ccccc2)C3)n1 |
| 585 | CCN(Cc1ccc(OC)cc1)Cc1cc(=O)n2ccccc2n1 |
| 623 | CC1(C)NC(=O)N(CCCCCCN2C(=O)NC(C)(C)C2=O)C1=O |
| 935 | CCOc1ccc(NC(=O)Nc2nccn(-c3ccccc3OC)c2=O)cc1 |
| 794 | CCN1CCCn2cc(S(=O)(=O)Nc3cc(Cl)ccc3OC)cc2C1=O |
| 916 | Cc1ccc(C(=O)N2CCCC(COc3ccc(C(=O)NC(C)C)cc3)C2)c(C)c1 (configuration not stated) |
| 902 | CC(NC(=O)CN1C(=O)C2CCCCN2c2ccc(S(=O)(=O)N(C)C)cc21)c1ccccc1 (configuration not stated) |
| 1050 | O=C(Cn1cccc1-c1nnc(-c2ccccc2)o1)Nc1cccc(Cl)c1 |
| 592 | O=C(CSc1ccc2nnc(-c3cccnc3)n2n1)NC1CCCCC1 |
| 579 | Cc1nnc(N2CCCC(C(=O)NCc3cccnc3)C2)c2nn(-c3ccccc3)c(C)c12 (configuration not stated) |
| 960 | Cn1cc2c(n1)c(=O)n(Cc1ccc(Cl)cc1)c1nn(Cc3ccccc3)c(=O)n21 |

| SMILES | RP-LC retention time [s] |
| --- | --- |
| Fc1ccc(C(OCCN2CCN(CCCc3ccccc3)CC2)c2ccc(F)cc2)cc1 | 957 |

— the METLIN SMRT retention time set (Domingo-Almenara et al. 2019)
